Measured values: the METLIN SMRT retention time set (Domingo-Almenara et al. 2019)

Assay: gradient 5% acetonitrile 3 min, to 50% in 2 min, to 85% in 15 min, held 3 min, 100 µL/min
Conditions: column: Zorbax Extend-C18 2.1 x 50 mm; eluents: water / acetonitrile, 0.1% formic acid
Summary of the method: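 Mixtures of ~100 pure standards were chromatographed on a Zorbax Extend-C18 column (2.1 × 50 mm, 1.8 μm) at 100 μL/min using water and acetonitrile, each with 0.1% formic acid. Detection used a quadrupole time-of-flight mass spectrometer in positive and negative ionization mode, and data collection spanned 3 months. Retention time was obtained from adduct peaks picked computationally and each checked manually.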

Compound | RP-LC retention time
COc1ccc(C(=O)N2C[C@H](c3nc(-c4ccncc4)no3)[C@@H](C)C2)c(OC)c1 | 743 s
Fc1ccc(OCc2nnc3sc(-c4ccc(Cl)cc4)nn23)cc1 | 1030 s
Cc1ccc(C2Cn3nnc(-c4nc(-c5ccc6c(c5)OCO6)no4)c3CO2)c(C)c1 (centres undefined) | 1250 s
Cc1ccc(Cl)cc1NC(=O)Nc1cccc(-c2ccc(N3CCOCC3)nn2)c1 | 753 s
COc1ccc(-c2noc(C3CC(=O)N(c4ccc(C)c(C)c4)C3)n2)cc1OC (centres undefined) | 928 s
CCC(C)NC(=O)N1CC(n2cc(C(=O)N3CCOCC3)nn2)C1 (centres undefined) | 608 s
O=C(c1ccc(Cl)nc1)N1CCCC1c1nc(-c2cccc(C(F)(F)F)c2)no1 (centres undefined) | 1070 s
COCCNS(=O)(=O)c1cccc(-c2nc(-c3ccc(C)cc3)no2)c1 | 1060 s
Cc1c(C(=O)N2CCSCC2)cnn1-c1cc(-c2nc(C(C)C)no2)ccn1 | 974 s
Cc1nn2c(C)c(C(=O)OC(C)C)nnc2c1-c1ccc(F)cc1 | 1060 s
CS(=O)(=O)c1ccc2nc(NC(=O)c3coc(NC(=O)c4cccs4)n3)sc2c1 | 685 s
Cc1ccn2cc(-c3ccc(NS(=O)(=O)c4ccc(C)c([N+](=O)[O-])c4)cc3)nc2n1 | 685 s
O=C(C1CCCN(c2ncnc3c2nc2n3CCCCC2)C1)N1CCN(c2ncccn2)CC1 (centres undefined) | 690 s
Cc1ccc(C(=O)NCCc2nc3cccnc3n2CC(C)C)cc1 | 716 s
COc1ccc(Cl)c2c(=O)c3c([nH]c12)CCN(CC(=O)Nc1cc(F)ccc1F)C3 | 625 s
CCCCN(C)C(=O)c1cc2sc(C)c(CN3CCCC3)c2[nH]1 | 671 s
COc1ccc(NC(=O)C2(C)Oc3cccnc3NC2=O)cc1OC (centres undefined) | 651 s
CCC(=O)Nc1ccc(C2(C(=O)NCCC(C)C)CCCCC2)cc1 | 936 s
CCOC(=O)c1cnc2nc(C)ccc2c1Nc1ccc(OC)c(OC)c1 | 587 s
CCOc1ccc(CCNC(=O)c2c(C)oc3nc(C)nc(N4CCCC4)c23)cc1 | 697 s
Cc1noc2nc(C)n(CC(=O)NCc3cccc(Br)c3)c(=O)c12 | 805 s
CCCn1cc(S(=O)(=O)Nc2cc(C)cc(C)c2)c2cccnc21 | 946 s
CN(C)CCCn1c(C2CC(=O)N(c3ccccc3F)C2)nc2ccccc21 (centres undefined) | 580 s
COC(=O)c1ccc(N2C=C(C#N)S(=O)(=O)c3ccc(C)cc32)cc1 | 887 s
Cc1ccc(-c2cc3c4nnc(CCC(=O)NCc5ccccc5C(F)(F)F)n4ccn3n2)cc1C | 952 s
CCCn1c(=O)c(C)nc2cc(-c3noc(COc4ccc(F)cc4)n3)ccc21 | 1060 s
COc1ccc(-c2noc(C3CC(=O)N(c4ccc(Cl)cc4)C3)n2)cc1OC (centres undefined) | 950 s
Cc1ccccc1Nc1c(-c2ccc(O)cc2)nc2c(C)cccn12 | 651 s

Continued, values first:

RP-LC retention time | Compound
631 s | CNC(=O)Cc1csc(NC(=O)c2ccc(OCC(=O)C3CC3)cc2)n1
645 s | CCOc1ccc(-n2c(N3CCN(C)CC3)nc3cc(C(=O)OC)ccc3c2=O)cc1
1090 s | CCOc1ccc(CCNC(=O)c2snc(C(=O)NCc3ccccc3)c2N)cc1OCC
619 s | COc1ccc(OC)c(S(=O)(=O)N2CCC(N3C[C@H](OC)[C@@H]3c3cccnc3)CC2)c1
700 s | Cc1c(C2CCN(C(=O)NCCc3ccccc3)CC2)noc1N
648 s | O=C(Cc1cccc(F)c1)N1CC(N2CC(C(=O)N3CCCC3)CC2=O)C1 (centres undefined)
982 s | COc1cc(NC(=O)NC(C(=O)N2CCc3ccccc32)C(C)C)cc(OC)c1 (centres undefined)
647 s | Cc1ccn2cc(-c3cccc(S(=O)(=O)N4CC(C)OC(C)C4)c3)nc2c1 (centres undefined)
745 s | CCCS(=O)(=O)N1CCN(C(=O)c2cc(-c3ccc(OC)cc3)n[nH]2)CC1
796 s | CCOC(=O)N1CCC(NC(=O)C2(c3ccc(F)cc3)CC2)CC1
853 s | CCCN(C(=O)c1cccc(NC(=O)[C@H]2[C@@H]3C[C@@H]4[C@H]2C(=O)O[C@@H]4C3)c1)c1ccccc1F
762 s | COc1ccc(NC(=O)NCC(=O)N2CCc3ccccc32)c(OC)c1
588 s | CN(C)C(CNC(=O)C1(c2ccccc2)CCOCC1)c1cn(C)c2ccccc12 (centres undefined)
742 s | CCn1cnc(S(=O)(=O)N2CCCC(C(=O)Nc3ccc(F)cc3F)C2)c1 (centres undefined)
925 s | O=C(NCCc1ccc(Cl)cc1)c1nnc(-c2ccc(S(=O)(=O)N3CCOCC3)cc2)o1
897 s | Cc1cccc(-c2noc(C3CCCN3C(=O)NC(C)C)n2)c1 (centres undefined)
710 s | C=CCNC(=O)C1CCN(C(=O)Nc2ccc(NC(=O)Nc3ccccc3F)cc2)CC1
705 s | COc1ccccc1N1CCN(CCN2C(=O)N=C3C(=Nc4ccccc43)C2=O)CC1

RP-LC retention time | Compound
831 s | Cc1ccc(CN2CCN(CC(=O)Nc3nc(-c4ccc(C)c(C)c4)cs3)CC2)cc1
948 s | CC1CCCCN1c1nc(-c2ccc([N+](=O)[O-])cc2)nc2ccccc12 (centres undefined)
802 s | CC1CCN(C(=O)C2CCN(S(C)(=O)=O)c3ccccc3O2)CC1 (centres undefined)
790 s | CCOc1ccccc1N1CCN(C(=O)c2csc(C(=O)NC3CC3)n2)CC1
600 s | O=S(=O)(NCc1ccc2[nH]c3c(c2c1)CCCC3)c1ccccc1
812 s | Cc1cc(C)cc(S(=O)(=O)N2CCc3c(c(-c4nnc(-c5ccc(F)cc5)o4)nn3C)C2)c1
874 s | COCCN1C(=O)c2ccccc2C(C(=O)NCCc2ccc(F)cc2)C12CCCC2 (centres undefined)
906 s | O=C(CCC(=O)N1CC2CCCN2c2ccccc21)NCCc1cccs1 (centres undefined)
872 s | COc1ccc(CN2C(=O)[C@H](OC)[C@@H]2C2=CCN(S(=O)(=O)c3cccs3)CC2)cc1
844 s | COc1ccc(NC(=O)N2CCc3cn(C)c4cccc(c34)C2)cc1
926 s | CC(C)CC(NC(=O)OCc1ccccc1)C(=O)NC(Cc1c[nH]c2ccccc12)C(=O)O (centres undefined)
882 s | CC1CCN(S(=O)(=O)c2nn(Cc3ccccc3)cc2C(=O)O)CC1
850 s | CCc1nnc(-c2cccnc2N2CCN(C(=O)Nc3cc(F)cc(F)c3)CC2)o1
597 s | CC(=O)Nc1c(C)nn(-c2ccccc2)c1N1CCC(C(=O)N2CCN(C3CCCCC3)CC2)CC1
966 s | Cc1ccc(-n2c(N3CCCC(C(=O)Nc4ccccc4)C3)nc3ccsc3c2=O)cc1 (centres undefined)
804 s | Cc1ccc(S(=O)(=O)N2CC3CN(C(=O)c4ccc5c(c4)OCO5)CC(C2)O3)cc1
651 s | CCCNC(=O)C1CCCN(c2ccc(SCC(=O)Nc3c(C)cccc3C)nn2)C1 (centres undefined)
679 s | CCCNC(=O)C1CCN(c2ccc(SCC(=O)Nc3ccc(C)cc3F)nn2)CC1
